Experimental data: patent US20240352046A1, “ECTONUCLEOTIDE PYROPHOSPHATASE-PHOSPHODIESTERASE-1 (ENPP1) INHIBITORS AND USES THEREOF” (1cBio, Inc., priority 2020, published 2024)

What was measured:
[1] = biological target: ENPP-1 (Ectonucleotide Pyrophosphatase/Phosphodiesterase 1) (Homo sapiens (Human), UniProt P22413); test: ENPP1 inhibition assay (AMP Glo, cGAMP substrate); type: biochemical; conditions: cGAMP 20 μM substrate, ENPP1 1 nM
[2] = system: IP-10 release in differentiated THP-1 cells; test: IP-10 cytokine release assay in THP-1 cell lines; type: cell-based, Human; conditions: Homo sapiens, read-out: EC50 (μM)@ 1 μM of cGAMP; IP-10 release over cGAMP induced release, THP-1, 1 μM cGAMP
Method: Percent release of Interferon gamma-induced protein 10 (IP-10) was determined in acute monocytic leukemia (THP-1; ATCC® TIB-202™) cell line. THP-1 cells (0.2×10^6 cells/well) were differentiated using phorbol 12-myristate 13-acetate (PMA, 10 nM (final concentration); Cat #P8139, Sigma) and incubated for 24 h at 37° C., 5% CO2 in an incubator (cell culture conditions) prior to treating with serial dilutions of compounds (3 fold, 6 point dose response starting at 10 μM). After treatment with the compounds cells were further incubated for 2 h under cell culture conditions and then exposed to 2′,3′-cGAMP (c-GAMP, 1 μM (final concentration); Cat #SML 1229, Sigma). Differentiated THP-1 cells were further cultured for 24 h after which the supernatant was harvested, and ELISA was performed as per the manufacturer's protocol (BD optEIA Human IP-10 ELISA Set; Cat #550926 & 550534, BD Biosciences). Plates were read in Biotek plate reader by measuring absorbance at 450 nm.
The release of absolute IP-10 in differentiated THP-1 by compounds in the presence of cGAMP was quantified with reference to standard after subtracting blank (negative) reading from the test readings. The absolute release of IP-10 in the presence of cGAMP (1 μM) is given in the bar-graph (FIG.-1) and in the table-B2a.
The release of IP-10 in differentiated THP-1 by compounds over cGAMP induced release at four different concentrations of cGAMP (1, 5, 10 & 30 μM) was quantified with reference to standard by normalizing the blank (negative) subtracted test readings from average of cGAMP activated cells at that particular concentration. The EC50's was calculated by fitting the curve to the “four-parameter variable slope logistic model” using Prism Graph Pad.

[3] = system: IFN-β release in differentiated THP-1 cells; test: IFN-β cytokine release assay in THP-1; type: cell-based; conditions: Homo sapiens, read-out: EC50 (μM) @ 1 μM of cGAMP; IFN-β release over cGAMP induced release, THP-1, 1 μM cGAMP
Method: Percent release of Interferon Beta (IFN-03) was determined in acute monocytic leukemia (THP-1; ATCC® TIB-202™) cell line. THP-1 cells (0.3×10^6 cells/well) were differentiated using phorbol 12-myristate 13-acetate (PMA, 50 ng/mL; Cat #P8139, Sigma) and incubated for 24 h at 37° C., 5% CO2 in an incubator (cell culture conditions) prior to treating with serial dilutions of compounds (3 fold, 5 point dose response starting at […]). After treatment with the compounds cells were further incubated for 2 h under cell culture conditions and then exposed to 2′,3′-cGAMP (c-GAMP, 1 μM; Cat #SML 1229, Sigma). Differentiated THP-1 cells were further cultured for 6 h after which the supernatant was harvested, and ELISA was performed as per the manufacturer's protocol (Human IFN-beta Quantikine ELISA Kit; Cat #DIFNB0, R&D systems). Plates were read in Biotek plate reader by measuring absorbance at 450 nm.

[4] = system: IFN-β release in mouse splenocytes; test: IFN-β in mouse splenocyte assay; type: cell-based, Balb/c mice; conditions: activated Balb/c splenocytes, cGAMP 1 μM, 24 hr
Method: Percent release of Interferon Beta (IFN-03) is determined in mouse splenocytes isolated from Balb/c mice. Mouse splenocytes ([…] cells/well) were activated with Anti-mouse CD3e (3 μg/mil, coated overnight at 4° C.; Cat #14-0032-82, eBioscience) and then incubated with Anti-mouse CD28 (3 μg/ml soluble; Cat #16-0289-81, eBiosciences) for 24 h at 37° C., 5% CO2 in an incubator (cell culture conditions) prior to treating them with serial dilutions of compounds (3 fold, 6 point dose response starting at 30 μM). After treatment with the compounds cells are further incubated for 2 h under cell culture conditions and then treated with 2′,3′-cGAMP (c-GAMP, 1 μM; Cat #SML 1229, Sigma). Splenocytes were further incubated under cell culture conditions for 24 hr after which the supernatant was harvested, and ELISA was performed as per the manufacturer's protocol (mIFN-β kit; Cat #MIFNB0 & DY008, R&D Systems). Plates were read in Biotek plate reader by measuring absorbance at 450 nm.

[5] = system: IP-10 release in mouse splenocytes; test: IP-10 in mouse splenocyte assay; type: cell-based, Balb/c mice; conditions: activated Balb/c splenocytes, cGAMP 1 μM, 48 hr
Method: Percent release of Interferon gamma-induced protein 10 (IP-10) was determined in mouse splenocytes isolated from Balb/c mice. Mouse splenocytes (2.5*10^5 cells/well) were activated with Anti-mouse CD3e (3 μg/ml, coated overnight at 4° C.; Cat #14-0032-82, eBioscience) and then incubated with Anti-mouse CD28 (3 μg/ml soluble; Cat #16-0289-81, eBiosciences) for 24 h at 37° C., 5% CO2 in an incubator (cell culture conditions) prior to treating them with serial dilutions of compounds (3 fold, 6 point dose response starting at 30 μM). After treatment with the compounds cells were further incubated for 2 h under cell culture conditions and then treated with 2′,3′-cGAMP (c-GAMP, 1 μM; Cat #SML 1229, Sigma). Splenocytes were further incubated under cell culture conditions for 48 hr after which the supernatant was harvested, and ELISA was performed as per the manufacturer's protocol (mIP-10 kit; Cat #DY466-05 & DY008, R&D Systems). Plates were read in Biotek plate reader by measuring absorbance at 450 nm.

Chain of ENPP-1 (Ectonucleotide Pyrophosphatase/Phosphodiesterase 1) (P22413 whole entry): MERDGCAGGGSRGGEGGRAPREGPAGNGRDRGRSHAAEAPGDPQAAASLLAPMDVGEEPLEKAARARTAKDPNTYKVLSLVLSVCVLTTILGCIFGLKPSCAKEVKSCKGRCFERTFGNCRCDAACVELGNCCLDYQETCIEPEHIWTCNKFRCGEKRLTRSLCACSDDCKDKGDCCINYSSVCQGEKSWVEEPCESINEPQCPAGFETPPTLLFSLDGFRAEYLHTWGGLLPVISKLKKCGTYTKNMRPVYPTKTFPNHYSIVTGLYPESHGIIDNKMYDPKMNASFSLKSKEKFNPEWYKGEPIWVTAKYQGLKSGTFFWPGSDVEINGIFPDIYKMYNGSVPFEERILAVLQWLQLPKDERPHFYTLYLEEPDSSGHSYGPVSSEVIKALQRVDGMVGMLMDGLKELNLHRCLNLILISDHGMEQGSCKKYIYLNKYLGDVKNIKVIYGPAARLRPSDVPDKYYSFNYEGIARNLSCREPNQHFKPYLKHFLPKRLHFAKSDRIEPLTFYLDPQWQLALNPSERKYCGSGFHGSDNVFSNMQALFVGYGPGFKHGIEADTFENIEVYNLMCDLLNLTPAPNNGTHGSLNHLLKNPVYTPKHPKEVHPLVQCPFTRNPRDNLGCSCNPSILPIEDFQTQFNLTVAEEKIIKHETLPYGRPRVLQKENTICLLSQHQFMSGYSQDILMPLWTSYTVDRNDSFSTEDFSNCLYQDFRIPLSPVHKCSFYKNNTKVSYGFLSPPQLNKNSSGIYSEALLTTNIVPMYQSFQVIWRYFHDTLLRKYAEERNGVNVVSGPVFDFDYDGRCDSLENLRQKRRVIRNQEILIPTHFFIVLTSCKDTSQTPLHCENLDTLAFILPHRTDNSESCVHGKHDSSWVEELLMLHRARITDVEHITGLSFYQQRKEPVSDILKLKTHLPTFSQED

IC50 [1]: 0.084 µM
EC50 [2]: 0.071 µM
EC50 [3]: < 0.12 µM
IC50 [4]: 3260 nM
IC50 [5]: 1780 nM
Compound: Cc1cc(Cl)n2ncnc(N3CC4(CC(N(C)S(N)(=O)=O)C4)C3)c12 [Compound 1.76, N-[2-(7-chloro-5-methylpyrrolo[2,1-f][1,2,4]triazin-4-yl)-2-azaspiro[3.3]hept-6-yl]-N-methylsulfuric diamide]
